IC50 data for 38 compounds are collected here from patent publication US10421718B2, “EBNA1 inhibitors and their method of use” (priority 2013, dated 2019).

Where a name gives a salt, the structure may show the parent alone.

In the assay the target is T1, His-EBNA1 (DNA binding domain of EBNA1, amino acids 459-607) (Epstein-Barr virus, UniProt P03211).
T1 construct: made in house; host or cells: E. coli
T1 sequence (P03211 459-607): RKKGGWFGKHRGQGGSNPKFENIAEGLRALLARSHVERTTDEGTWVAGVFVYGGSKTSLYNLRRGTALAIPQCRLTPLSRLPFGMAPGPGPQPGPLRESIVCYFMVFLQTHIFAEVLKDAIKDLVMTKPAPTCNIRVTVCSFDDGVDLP
As to the kind of experiment: Inhibition of 5′-biotin-oPL4624 binding to His-EBNA1 using Alpha Screen technology. Particulars: Alpha Screen Activity (IC50, inhibition of 5′-biotin-oPL4624 binding to His-EBNA1), 15 nM His-EBNA1, 0.2 nM bt-oPL4624, 2 hr room temperature. In outline: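 His-tagged EBNA1 DNA-binding domain (aa 459-607, E. coli-expressed) at 15 nM with 0.2 nM biotinylated self-complementary oligo, streptavidin donor and nickel acceptor beads, in 25 mM Tris pH 7.2, 160 mM NaCl, 1 mM MgCl2. Compound 3.2 nM-100 μM final; AlphaScreen read after 2 h at room temperature, one-site dose-response fit.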
A general note: Bead proximity is the source of the signal in Alpha formats.
`Cn1ccc2cc(-c3c(C#Cc4cccc(O)c4)cccc3C(=O)O)ccc21` [Entry 263, 3-[2-(3-hydroxyphenyl)ethynyl]-2-(1-methyl-1H-indol-5-yl)benzoic acid]: the IC50 – broadly, the point on the concentration scale where inhibition reaches its midpoint – lay in the range of 1 to 10 µM. In turn, `CN1CCOc2cc(-c3c(C#Cc4cccc(O)c4)cccc3C(=O)O)ccc21` [Entry 264, 3-[2-(3-hydroxyphenyl)ethynyl]-2-(4-methyl-3,4-dihydro-2H-1,4-benzoxazin-7-yl)benzoic acid; trifluoroacetate salt] registered an IC50 of 1 to 10 µM.

The compound `CS(=O)(=O)Nc1cccc(-c2c(C#Cc3cccc(O)c3)cccc2C(=O)O)c1` [Entry 265, 3-[2-(3-hydroxyphenyl)ethynyl]-2-(3-methanesulfonamidophenyl)benzoic acid] returned an IC50 of 10 to 100 µM. `O=C(O)c1cccc(C#Cc2cccc(O)c2)c1-c1ccc2cc[nH]c2c1` [Entry 266, 3-[2-(3-hydroxyphenyl)ethynyl]-2-(1H-indol-6-yl)benzoic acid] showed an IC50 of under 1 µM. As for `NC(=O)c1cccc(-c2c(C#Cc3cccc(O)c3)cccc2C(=O)O)c1` [Entry 267, 2-(3-carbamoylphenyl)-3-[2-(3-hydroxyphenyl)ethynyl]benzoic acid], the figure is 10 to 100 µM. `O=C(O)c1cccc(C#Cc2cccc(O)c2)c1-c1cn(S(=O)(=O)c2ccccc2)c2ccccc12` [Entry 268, 2-[1-(benzenesulfonyl)-1H-indol-3-yl]-3-[2-(3-hydroxyphenyl)ethynyl]benzoic acid] registered an IC50 of 10 to 100 µM. Compound `O=C(O)c1cccc(C#Cc2cccc(O)c2)c1-c1cccc(O)c1` [Entry 269, 2-(3-hydroxyphenyl)-3-[2-(3-hydroxyphenyl)ethynyl]benzoic acid] had a concentration for half-maximal inhibition (IC50) of 10 to 100 µM.

`O=C(O)c1cccc(C#Cc2ccncc2)c1-c1ccc2[nH]ccc2c1` [Entry 270, 2-(1H-indol-5-yl)-3-[2-(pyridin-4-yl)ethynyl]benzoic acid; trifluoroacetate salt]: the IC50 is 10 to 100 µM. Then `O=C(O)c1cccc(C#Cc2ccncc2)c1-c1cc(O)cc(Cl)c1` [Entry 271, 2-(3-chloro-5-hydroxyphenyl)-3-[2-(pyridin-4-yl)ethynyl]benzoic acid; trifluoroacetate salt], with 1 to 10 µM; and `O=C(O)c1cccc(C#Cc2ccncc2)c1-c1cc(O)cc(F)c1` [Entry 272, 2-(3-fluoro-5-hydroxyphenyl)-3-[2-(pyridin-4-yl)ethynyl]benzoic acid; trifluoroacetate salt], with 10 to 100 µM; and `COc1cc(OC)cc(-c2c(C#Cc3ccncc3)cccc2C(=O)O)c1` [Entry 273, 2-(3,5-dimethoxyphenyl)-3-[2-(pyridin-4-yl)ethynyl]benzoic acid; trifluoroacetate salt], with 10 to 100 µM. Then `O=C(O)c1cccc(C#CC(O)c2ccc(F)cc2)c1-c1cccc(O)c1` (centres unmarked) [Entry 274, 3-[3-(4-fluorophenyl)-3-hydroxyprop-1-yn-1-yl]-2-(3-hydroxyphenyl)benzoic acid], with 1 to 10 µM; and `O=C(O)c1cccc(C#Cc2cccc(O)c2)c1-c1ccccc1Oc1ccccc1` [Entry 275, 3-[2-(3-hydroxyphenyl)ethynyl]-2-(2-phenoxyphenyl)benzoic acid], with 10 to 100 µM.

For the compound `O=C(O)c1cccc(C#Cc2cccc(O)c2)c1-c1c[nH]c2ccccc12` [Entry 276, 3-[2-(3-hydroxyphenyl)ethynyl]-2-(1H-indol-3-yl)benzoic acid], the IC50 was 10 to 100 µM. As for `COc1cc(OC)cc(-c2c(C#Cc3cccc(O)c3)cccc2C(=O)O)c1` [Entry 277, 2-(3,5-dimethoxyphenyl)-3-[2-(3-hydroxyphenyl)ethynyl]benzoic acid], the figure is 10 to 100 µM; as for `NC(=O)c1cccc(C#Cc2cccc(C(=O)O)c2N)c1` [Entry 278, 2-amino-3-[2-(3-carbamoylphenyl)ethynyl]benzoic acid; trifluoroacetate salt], 10 to 100 µM. As for `Nc1c(C#Cc2cccc(C(=O)O)c2)cccc1C(=O)O` [Entry 279, 2-amino-3-[2-(3-carboxyphenyl)ethynyl]benzoic acid; trifluoroacetate salt], the figure is 10 to 100 µM; as for `C(#Cc1ccc2[nH]ccc2c1)c1cccc(-c2nnn[nH]2)c1` [Entry 280, 5-[3-(1H-tetrazol-5-yl)-phenylethynyl]-1H-indole 5-(3-Ethynyl-phenyl)-1H-tetrazole], 1 to 10 µM; as for `C(#Cc1c[nH]c2ncccc12)c1cccc(-c2nnn[nH]2)c1` [Entry 281, 3-[3-(1H-tetrazol-5-yl)-phenylethynyl]-1H-pyrrolo[2,3-b]pyridine], 10 to 100 µM. Consider `C(#Cc1ccc2cc[nH]c2c1)c1cccc(-c2nnn[nH]2)c1` [Entry 282, 6-[3-(1H-tetrazol-5-yl)-phenylethynyl]-1H-indole], for which the IC50 was 1 to 10 µM. For the compound `O=S(=O)(c1ccccc1)n1cc(C#Cc2cccc(-c3nnn[nH]3)c2)c2ccccc21` [Entry 283, 1-benzenesulfonyl-3-[3-(1H-tetrazol-5-yl)-phenylethynyl]-1H-indole], the IC50 is under 1 µM. Then `C(#Cc1c[nH]c2ccccc12)c1cccc(-c2nnn[nH]2)c1` [Entry 284, 3-[3-(1H-tetrazol-5-yl)-phenylethynyl]-1H-indole], with under 1 µM; and `OCc1ccccc1C#Cc1cccc(-c2nnn[nH]2)c1` [Entry 285, {2-[3-(1H-tetrazol-5-yl)-phenylethynyl]-phenyl}-methanol], with 10 to 100 µM; and `O=C(O)c1cccc(C#Cc2cccc(C(=O)N3CCOCC3)c2)c1` [Entry 286, 3-[3-(morpholine-4-carbonyl)-phenylethynyl]-benzoic acid], with 10 to 100 µM.

`CNC(=O)c1cccc(C#Cc2cccc(C(=O)O)c2)c1` [Entry 287, 3-(3-methylcarbamoyl-phenylethynyl)-benzoic acid] returned a 50% inhibitory concentration (IC50) of 10 to 100 µM.

`CN(C)C(=O)c1cccc(C#Cc2cccc(C(=O)O)c2)c1` [Entry 288, 3-(3-dimethylcarbamoyl-phenylethynyl)-benzoic acid] yielded an IC50 of 100 to 1000 µM. As for `CN1CCN(C(=O)c2cccc(C#Cc3cccc(C(=O)O)c3)c2)CC1` [Entry 289, 3-[3-(4-methyl-piperazine-1-carbonyl)-phenylethynyl]-benzoic acid], the figure is 100 to 1000 µM; as for `O=C(O)c1cccc(C#Cc2cccc(C(=O)N3CCN(c4ccccc4)CC3)c2)c1` [Entry 290, 3-[3-(4-phenyl-piperazine-1-carbonyl)-phenylethynyl]-benzoic acid], 10 to 100 µM; as for `O=C(O)c1cccc(C#Cc2ccncc2)c1-n1ccc2ccccc21` [Entry 291, 2-indol-1-yl-3-pyridin-4-ylethynyl-benzoic acid], 10 to 100 µM. Then `O=C(O)c1cccc(C#Cc2ccncc2)c1-n1ccnc1` [Entry 292, 2-imidazol-1-yl-3-pyridin-4-ylethynyl-benzoic acid], with 100 to 1000 µM. Then `O=C(O)c1cccc(C#Cc2ccncc2)c1-n1cncn1` [Entry 293, 3-pyridin-4-ylethynyl-2-[1,2,4]triazol-1-yl-benzoic acid], with 10 to 100 µM; and `O=C(O)c1cccc(C#Cc2ccccc2)c1-n1ccnc1` [Entry 294, 2-imidazol-1-yl-3-phenylethynyl-benzoic acid], with 10 to 100 µM. On to `O=C(O)c1cccc(C#Cc2ccccc2)c1-n1cccn1` [Entry 295, 3-phenylethynyl-2-pyrazol-1-yl-benzoic acid], for which the IC50 lay within 100 to 1000 µM.

Consider `O=C(O)c1cccc(C#Cc2ccccc2)c1-n1cncn1` [Entry 296, 3-phenylethynyl-2-[1,2,4]triazol-1-yl-benzoic acid], for which the IC50 was in the range of 10 to 100 µM. `O=C(O)c1cccc(C#Cc2ccccc2)c1-n1cnc2ccccc21` [Entry 297, 2-benzoimidazol-1-yl-3-phenylethynyl-benzoic acid]: the IC50 lay within 10 to 100 µM. In turn, `O=C(O)c1cccc(C#Cc2ccccc2)c1-n1ncc2ccccc21` [Entry 298, 2-indazol-1-yl-3-phenylethynyl-benzoic acid] gave an IC50 of 10 to 100 µM. Then `O=C(O)c1cccc(C#Cc2ccccc2)c1-n1ccc2ccccc21` [Entry 299, 2-indol-1-yl-3-phenylethynyl-benzoic acid], with 1 to 10 µM. As to `O=C(O)c1cccc(C#Cc2ccncc2)c1-n1cnc2ccccc21` [Entry 300, 2-benzoimidazol-1-yl-3-pyridin-4-ylethynyl-benzoic acid], the IC50 was in the range of 10 to 100 µM.
